Converted amounts (≈) assume the structure as drawn. The source made the active and inactive calls. No cut-off for these calls is given here.
Key:
[1] = test system: Human alphaherpesvirus 1; assay: Antiviral activity against Human herpesvirus 1 infected Vero cells assessed as reduction in viral plaque after 66 hr relative to control; type: functional; design: concentration or dose not given beside the values
[2] = test system: Human alphaherpesvirus 1; assay: Antiviral activity against Human herpesvirus 1 infected Vero cells after 66 hr; type: functional
[3] = Cytotoxicity against Chlorocebus aethiops (African green monkey) Vero cells assessed as concentration required for 50% loss of monolayer around viral plaque after 66 hr; type: cell-based; settings: chlorocebus sabaeus, read-out: Activity

SMILES: CC(=N/NC(=O)c1cc(-c2ccc(Cl)cc2)n(-c2ccccc2)n1)/C(Cl)=N\Nc1ccc(F)cc1
- Activity [1]: 69%
- MAC [2]: 0.1 mg/mL
- CC50 at 66 h [3]: 20 µg/mL (≈ 39.3 µM)

SMILES: NNC(=O)c1cc(-c2ccc(Cl)cc2)n(-c2ccccc2)n1
- Activity [1]: 65%
- MAC [2]: 0.1 mg/mL
- CC50 at 66 h [3]: 20 µg/mL (≈ 63.9 µM)

SMILES: CC(=N/NC(=O)c1cc(-c2ccc(Cl)cc2)on1)/C(Cl)=N\Nc1ccc(F)cc1
- Activity [1]: 51%
- MAC [2]: 0.1 mg/mL
- CC50 at 66 h [3]: 20 µg/mL (≈ 46.1 µM)

SMILES: O=C(N/N=c1\scc(-c2ccc(Cl)cc2)n1-c1ccccc1)c1cc(-c2ccc(Cl)cc2)on1
- Activity [1]: inactive
- CC50 at 66 h [3]: 20 µg/mL (≈ 39.4 µM)

SMILES: CC1=NN(C(=O)c2cc(-c3ccc(Cl)cc3)n(-c3ccccc3)n2)C(=O)/C1=N/Nc1ccc(F)cc1
- Activity [1]: inactive
- CC50 at 66 h [3]: 20 µg/mL (≈ 39.9 µM)

SMILES: NNC(=O)c1cc(-c2ccc(Cl)cc2)on1
- Activity [1]: 43%
- MAC [2]: 0.1 mg/mL
- CC50 at 66 h [3]: 10 µg/mL (≈ 42.1 µM)

SMILES: O=C(NNC(=S)Nc1ccccc1)c1cc(-c2ccc(Cl)cc2)n(-c2ccccc2)n1
- Activity [1]: inactive
- CC50 at 66 h [3]: 20 µg/mL (≈ 44.6 µM)

SMILES: O=C(N/N=c1\scc(-c2ccc(Cl)cc2)n1-c1ccccc1)c1cc(-c2ccc(Cl)cc2)n(-c2ccccc2)n1
- Activity [1]: inactive
- CC50 at 66 h [3]: 20 µg/mL (≈ 34.3 µM)

SMILES: Clc1ccc(-c2cc(-c3nnc(Nc4ccccc4)s3)no2)cc1
- Activity [1]: inactive
- CC50 at 66 h [3]: 20 µg/mL (≈ 56.4 µM)

SMILES: C[C@@]1(CO)[C@H](O)CC[C@@]2(C)[C@H]1CC[C@H]1C[C@@H]3C[C@@]12CC[C@]3(O)CO [APHIDICOLIN]
- Activity [1]: 100%
- MAC [2]: 0.005 mg/mL
- CC50 at 66 h [3]: 10 µg/mL (≈ 29.5 µM)

SMILES: O=C(NNC(=S)Nc1ccccc1)c1cc(-c2ccc(Cl)cc2)on1
- Activity [1]: 19%
- MAC [2]: 0.1 mg/mL
- CC50 at 66 h [3]: 20 µg/mL (≈ 53.6 µM)

SMILES: O=C(N/N=C1/S/C(=C\c2ccc(F)cc2)C(=O)N1c1ccccc1)c1cc(-c2ccc(Cl)cc2)on1
- Activity [1]: inactive
- CC50 at 66 h [3]: 20 µg/mL (≈ 38.5 µM)

SMILES: O=C(N/N=C1/S/C(=C\c2ccc(F)cc2)C(=O)N1c1ccccc1)c1cc(-c2ccc(Cl)cc2)n(-c2ccccc2)n1
- Activity [1]: inactive
- CC50 at 66 h [3]: 30 µg/mL (≈ 50.5 µM)

SMILES: O=C(N/N=C/c1ccc(F)cc1)c1cc(-c2ccc(Cl)cc2)n(-c2ccccc2)n1
- Activity [1]: 67%
- MAC [2]: 0.1 mg/mL
- CC50 at 66 h [3]: 20 µg/mL (≈ 47.7 µM)

SMILES: O=C(NN1C(=O)c2ccccc2C1=O)c1cc(-c2ccc(Cl)cc2)on1
- Activity [1]: inactive
- MAC [2]: 0.1 mg/mL
- CC50 at 66 h [3]: 10 µg/mL (≈ 27.2 µM)

SMILES: CC1=NN(C(=O)c2cc(-c3ccc(Cl)cc3)on2)C(=O)/C1=N/Nc1ccc(F)cc1
- Activity [1]: inactive
- CC50 at 66 h [3]: 20 µg/mL (≈ 47 µM)

SMILES: O=C(N/N=C/c1ccc(F)cc1)c1cc(-c2ccc(Cl)cc2)on1
- Activity [1]: 56%
- CC50 at 66 h [3]: 10 µg/mL (≈ 29.1 µM)

SMILES: Clc1ccc(-c2cc(-c3nnc(Nc4ccccc4)s3)nn2-c2ccccc2)cc1
- Activity [1]: inactive
- CC50 at 66 h [3]: 30 µg/mL (≈ 69.8 µM)

From ChEMBL document CHEMBL3046352, “Synthesis, anti-HSV-1, and cytotoxic activities of some new pyrazole- and isoxazole-based heterocycles” (Med Chem Res, 2011)
